Results from patent publication US10047105B2, “Gyrase inhibitors” (Merck Sharp & Dohme Corp., priority 2009, dated 2018).
In brackets after ≈: the same amount, converted by molar mass.

Tests used:
S. aureus ATCC 13709 = assay: MIC, antibacterial potency, S. aureus; format: cell-based; settings: S. aureus
S. pneumoniae ATCC 51916 = assay: MIC, S. pneumoniae; format: cell-based; settings: S. pneumoniae

Row | SMILES | MIC, SA (S. aureus ATCC 13709) | MIC Spn52 (S. pneumoniae ATCC 51916)
1 | CCOc1nc(Nc2cnc3c(c2)nnn3C(C)C)nc2[nH]c(CC)c(Br)c12.O=C(O)C(F)(F)F [700,450] | ≤ 0.5 µg/mL | 4 µg/mL
2 | CCOc1nc(Nc2cnc3c(c2)c(=O)n(C)c(=O)n3C)nc2[nH]c(CC)c(Br)c12.O=C(O)C(F)(F)F [700,452] | > 64 µg/mL | > 64 µg/mL
3 | CCc1[nH]c2nc(Oc3cncnc3)nc(N3CC(O)C3)c2c1Cl.O=C(O)C(F)(F)F [700,458] | 2 µg/mL | 8 µg/mL
4 | CCc1[nH]c2nc(Oc3cccnc3)nc(N3CCN(C(C)=O)CC3)c2c1Cl.O=C(O)C(F)(F)F [700,459] | 16 µg/mL | 32 µg/mL
5 | CCc1[nH]c2nc(Sc3cnc4nccnc4c3)nc(N3CCC[C@H]3CN)c2c1Cl [700,462] | > 64 µg/mL | 32 µg/mL (≈ 72.6 µM)
6 | CCc1[nH]c2nc(Sc3cnc4c(N)nc(N)nc4c3)nc(N3CC(C(=O)O)C3)c2c1Cl.O=C(O)C(F)(F)F.O=C(O)C(F)(F)F [700,464] | > 64 µg/mL | > 64 µg/mL
7 | CCc1[nH]c2nc(Oc3cccnc3)nc(N3CCN(c4cnccn4)CC3)c2c1Cl.O=C(O)C(F)(F)F [700,465] | 8 µg/mL | 32 µg/mL
8 | CCc1[nH]c2nc(Oc3cncnc3)nc(Oc3cncnc3)c2c1Cl.O=C(O)C(F)(F)F [700,466] | 4 µg/mL | 16 µg/mL
9 | CCc1[nH]c2nc(Sc3cnc4nccnc4c3)nc(N3CC(CNS(C)(=O)=O)C3)c2c1Br [700,468] | ≤ 0.5 µg/mL | 1 µg/mL (≈ 1.82 µM)
10 | CCc1[nH]c2nc(Sc3cnc4c(N)nc(N)nc4c3)nc(N(C)CCNC)c2c1Cl.O=C(O)C(F)(F)F.O=C(O)C(F)(F)F [700,472] | 64 µg/mL | 64 µg/mL
11 | CCOC(=O)Cc1nc(N)c2ncc(Sc3nc(N4CC(O)C4)c4c(Cl)c(CC)[nH]c4n3)cc2n1.O=C(O)C(F)(F)F.O=C(O)C(F)(F)F [700,473] | 32 µg/mL | 64 µg/mL
12 | CCOc1nc(Cc2cccnc2)nc2[nH]c(CC)c(Cl)c12 [700,474] | 8 µg/mL (≈ 25.3 µM) | 8 µg/mL (≈ 25.3 µM)
13 | CCOc1nc(Nc2cnc3c(c2)nnn3CC2CC2)nc2[nH]c(CC)c(Br)c12.O=C(O)C(F)(F)F [700,476] | > 64 µg/mL | > 64 µg/mL
14 | CCc1[nH]c2nc(Oc3cncc(F)c3)nc(Oc3cncc(F)c3)c2c1Cl.O=C(O)C(F)(F)F [700,477] | 1 µg/mL | 16 µg/mL
15 | CCc1[nH]c2nc(Cc3cccnc3)nc(N(C)C)c2c1Cl [700,478] | 64 µg/mL (≈ 203 µM) | > 64 µg/mL
16 | CCc1[nH]c2nc(Sc3ccc4c(N)nc(N)nc4c3)nc(N3CCC3)c2c1Cl.O=C(O)C(F)(F)F.O=C(O)C(F)(F)F [700,480] | 16 µg/mL | > 64 µg/mL
17 | CCc1[nH]c2nc(Nc3cnc4c(c3)nnn4C(C)C)nc(N3CC(O)C3)c2c1Br.O=C(O)C(F)(F)F [700,482] | > 64 µg/mL | > 64 µg/mL
18 | CCOc1nc(Nc2ccc(Cl)c3ncccc23)nc2[nH]c(CC)c(Br)c12.O=C(O)C(F)(F)F [700,483] | 32 µg/mL | 32 µg/mL
19 | CCc1[nH]c2nc(Nc3cnc4c(c3)nnn4C(C)C)nc(N3CC(N)C3)c2c1Br.O=C(O)C(F)(F)F.O=C(O)C(F)(F)F [700,484] | 4 µg/mL | 8 µg/mL
20 | CCc1[nH]c2nc(Nc3cnc4c(c3)nnn4C(C)C)nc(N3CC(NC(=O)OC(C)(C)C)C3)c2c1Br.O=C(O)C(F)(F)F [700,485] | 4 µg/mL | > 64 µg/mL
21 | CCc1[nH]c2nc(Sc3cnc4nccnc4c3)nc(N3CC(CNS(C)(=O)=O)C3)c2c1Cl [700,487] | ≤ 0.5 µg/mL | ≤ 0.5 µg/mL
22 | CCc1[nH]c2nc(Sc3cnc4c(N)nc(N)nc4c3)nc(OCc3cccnc3)c2c1Cl.O=C(O)C(F)(F)F.O=C(O)C(F)(F)F [700,492] | 8 µg/mL | > 64 µg/mL
23 | CCc1[nH]c2nc(Sc3cnc4c(N)nc(N)nc4c3)nc(OCCn3ccnc3)c2c1Cl.O=C(O)C(F)(F)F.O=C(O)C(F)(F)F [700,493] | > 64 µg/mL | > 64 µg/mL
24 | CCc1[nH]c2nc(Sc3cnc4c(N)nc(C)nc4c3)nc(OCCn3ccnc3)c2c1Cl.O=C(O)C(F)(F)F [700,494] | > 64 µg/mL | > 64 µg/mL
25 | CCc1[nH]c2nc(Nc3cnc4c(c3)nnn4CC3CC3)nc(N3CC(S(=O)(=O)CC4CC4)C3)c2c1Br.O=C(O)C(F)(F)F [700,496] | > 64 µg/mL | > 64 µg/mL

The next lines start with the values.

Row | MIC, SA (S. aureus ATCC 13709) | MIC Spn52 (S. pneumoniae ATCC 51916) | SMILES
26 | 1 µg/mL (≈ 1.97 µM) | 1 µg/mL (≈ 1.97 µM) | CCc1[nH]c2nc(Sc3cnc4nccnc4c3)nc(N3CC(NC(=O)c4cnc[nH]4)C3)c2c1Cl [700,449]
27 | 1 µg/mL (≈ 2.01 µM) | 4 µg/mL (≈ 8.04 µM) | CCc1[nH]c2nc(Sc3cc(=O)n(CC(C)O)c(=O)[nH]3)nc(N3CC(O)C3)c2c1Br (stereo not drawn) [700,451]
28 | ≤ 0.5 µg/mL | ≤ 0.5 µg/mL | CCc1[nH]c2nc(Sc3cnc4nccnc4c3)nc(N3CC(NC(=O)c4csc(N)n4)C3)c2c1Cl [700,453]
29 | ≤ 0.5 µg/mL | 1 µg/mL (≈ 1.88 µM) | CCc1[nH]c2nc(Sc3cnc4nccnc4c3)nc(N3CC(NC(=O)c4cc(N)ccn4)C3)c2c1Cl [700,454]
30 | 2 µg/mL (≈ 4.29 µM) | 2 µg/mL (≈ 4.29 µM) | CCc1[nH]c2nc(Sc3cnc4nccnc4c3)nc(NCCCn3ccnc3)c2c1Cl [700,455]
31 | ≤ 0.5 µg/mL | 4 µg/mL (≈ 8.06 µM) | CCc1[nH]c2nc(Sc3cnc4nccnc4c3)nc(N3CCc4nc(N)sc4C3)c2c1Cl [700,456]
32 | 1 µg/mL (≈ 2.4 µM) | 2 µg/mL (≈ 4.81 µM) | CCc1[nH]c2nc(Sc3cnc4nccnc4c3)nc(NC[C@H](C)O)c2c1Cl [700,457]
33 | 1 µg/mL (≈ 2.26 µM) | > 64 µg/mL | CCc1[nH]c2nc(Cc3cccnc3)nc(N3CC(NC(=O)OC(C)(C)C)C3)c2c1Cl [700,461]
34 | 2 µg/mL (≈ 4.68 µM) | 4 µg/mL (≈ 9.37 µM) | CCc1[nH]c2nc(Sc3cnc4nccnc4c3)nc(N3CC(CN)C3)c2c1Cl [700,463]
35 | 4 µg/mL (≈ 8.49 µM) | 16 µg/mL (≈ 33.9 µM) | CCc1[nH]c2nc(Sc3cnc4nccnc4c3)nc(N3CC(CN)C3)c2c1Br [700,467]
36 | 1 µg/mL (≈ 2.19 µM) | 2 µg/mL (≈ 4.37 µM) | CCc1[nH]c2nc(Sc3cnc4nccnc4c3)nc(N3CC(N)C3)c2c1Br [700,469]
37 | ≤ 0.5 µg/mL | 1 µg/mL (≈ 1.87 µM) | CCc1[nH]c2nc(Sc3cnc4nccnc4c3)nc(N3CC(NS(C)(=O)=O)C3)c2c1Br [700,470]
38 | 2 µg/mL (≈ 3.85 µM) | 8 µg/mL (≈ 15.4 µM) | CCc1[nH]c2nc(Sc3cnc4sc(NC(C)=O)nc4c3)nc(N3CC(N)C3)c2c1Br [700,471]
39 | > 64 µg/mL | > 64 µg/mL | CCOC(=O)c1nc2cc(Sc3nc(N4CC(O)C4)c4c(Br)c(CC)[nH]c4n3)cnc2n(C)c1=O [700,475]
40 | 4 µg/mL (≈ 10.9 µM) | 32 µg/mL (≈ 87.5 µM) | CCc1[nH]c2nc(Cc3cccnc3)nc(Oc3cccnc3)c2c1Cl [700,479]
41 | 8 µg/mL (≈ 17.5 µM) | 2 µg/mL (≈ 4.36 µM) | CCc1[nH]c2nc(Sc3cnc4nccnc4c3)nc(OC3CNC3)c2c1Br [700,481]
42 | 16 µg/mL (≈ 38.7 µM) | 8 µg/mL (≈ 19.3 µM) | CCc1[nH]c2nc(Sc3cnc4nccnc4c3)nc(OC3CNC3)c2c1Cl [700,486]
43 | > 64 µg/mL | 1 µg/mL (≈ 2.07 µM) | CCNC(=O)NC1CN(c2nc(Sc3cnc4nccnc4c3)nc3[nH]c(CC)c(Cl)c23)C1 [700,490]
44 | ≤ 0.5 µg/mL | 1 µg/mL (≈ 2.01 µM) | CCNC(=O)NCC1CN(c2nc(Sc3cnc4nccnc4c3)nc3[nH]c(CC)c(Cl)c23)C1 [700,491]
45 | 64 µg/mL (≈ 187 µM) | > 64 µg/mL | CCc1[nH]c2nc(Cc3cccnc3)nc(N3CC(N)C3)c2c1Cl [700,495]
